# Results from US7651692B2, “Use of extracts of the plant Litchi chinensis sonn” (Cognis France S.A., priority 2001, dated 2010).
# Read-outs that look alike come from different tables or passages of the source.
# Key:
# elastase = assay: Inhibition of elastase activity; assay type: biochemical; conditions: concentration 0.1 % (w/v)
# Procedure: Serine proteases, such as elastase for example, degrade elastin, proteoglycans and collagen and thus weaken the connective tissue. […] The incubation time was 30 mins. at room temperature. The inhibition was followed photometrically at 410 nm; 1′α1-antitrypsin was used as positive standard.
# [1] = DPPH Test (chemical test, activity towards free radicals)
# Excerpt: (§1) The first test substrate selected was diphenyl picryl hydrazyl (DPPH), a purple-red colored stable radical which changes into its colorless leuco derivative on contact with radical trappers. The change of color can be followed photometrically. The test results are set out in Table 3 (DPPH Test). In another test, the hydroxylation of salicylic acid by hydroxyl radicals (from the reaction of hydrogen peroxide with iron(III) ions and EDTA) was investigated as a reference system. This reaction can also be photometrically investigated because the hydroxylation product is reddish in color. The influence of the extracts on the formation of hydroxysalicylic acid was measured at an optical density of 490 nm. In a third and final test, xanthine oxidase was selected as the test system. Under oxidative tress, the enzyme converts purine bases, for example adenine or guanine, into […]. The oxygen radicals intermediately formed can be detected by reaction with luminol (via the luminescence) and quantitatively determined. The luminescence output diminishes in the presence of substances with radical-trapping properties.
# [2] = Luminol + microperoxydase (biochemical test)
# xanthine oxidase = assay: Luminol Test with xanthine oxidase (biochemical test)
# Excerpt: as §1
# [3] = Fenton's reaction: hydroxylation of salicylic acid by hydroxyl radicals; conditions: formation of hydroxysalicylic acid, optical density 490 nm
# Excerpt: as §1
# human fibroblasts [4] = assay type: cell-based
# Procedure: Human fibroblasts were inoculated with 10% by weight fetal calf serum in a defined nutrient medium (DMEM=Dulbecco Minimum Essential Medium, a product of Life Technologie S.a.r.l.) and incubated for 24 h at 37° C. in a 5% CO2 atmosphere. The nutrient medium containing fetal calf serum was then replaced by a nutrient medium of DMEM without fetal calf serum. Active substance in the form of the two extracts of the pericarp of Litchi chinensis Sonn. was then added to this nutrient medium in various concentrations.
# TIMP-1 = TIMP-1 poured out by fibroblasts; assay type: cell-based, human; conditions: concentration not printed in this line
# Procedure: (§2) This test is used to evaluate the ability of the litchi extract to reduce the toxic effects of UV-A radiation on human fibroblasts cultivated in vitro. To this end, both the quantity of the enzyme MMP-1 (matrix metalloproteinase) poured out and the quantity of the natural enzyme inhibitor TIMP-1 are determined. UV-A radiation is used in this test because it can penetrate into the dermis and induce oxidative stress which leads to ageing of the skin.
# (§3) To this end, the fibroblasts are cultivated in a precisely defined medium containing fetal calf serum. […] After further incubation for one day at 37° C./5% CO2, the culture medium is replaced by a salt solution and the fibroblasts are exposed to UV-A (15 J/cm^2, lamp: SOL500, Dr. Höhnle. filter: H1, radiometer: Vibert Lourmat). After the exposure, the fibroblasts are incubated for another two days. The MMO-1 and TIMP-1 contents of the supernatant medium are determined with an Amersham test kit (Kit No. RPN2610 and RPN2611). No extract was added to the control.
# MMP-1 = assay: Inhibition of collagenase synthesis: MMP-1 poured out by fibroblasts; assay type: cell-based, human; conditions: 0.1 μm
# Procedure: as §2, §3
# [5] = system: human leucocytes (neutrophilic granulocytes); assay: Anti-inflammatory activity: respiratory burst, released oxygen radicals; assay type: cell-based; conditions: 0.001% by weight
# Procedure: Method: Anti-inflammatory activity was studied on a cell line of human leucocytes (neutrophilic granulocytes). To this end, the cells were incubated with various concentrations of extracts of Example 1 to be tested, after which a respiratory burst was induced by yeast cell extract (“zymosan”) by activation of the cells for 30 mins. with 0.1 ml zymosan. The content of oxygen radicals intermediately formed was determined for 60 seconds by reaction with luminol via the luminescence and quantitatively evaluated. The luminescence yield falls in the presence of substances with radical-trapping properties. The percentage of released radicals was determined against a reference substance (Minocycline—a radical trapper). The results are expressed in % relative to the control. For control purposes, the number of intact cells was determined with a particle counter and is shown in % by comparison with the control.
# human keratinocytes = assay: Cell protecting effect against UV-B in human keratinocytes cultivated in vitro; assay type: cell-based; conditions: UV-B 50 mJ/cm^2; 0.001% substance; level in % by comparison with the control
# Procedure: Method: The effect of UV-B radiation was investigated in vitro in keratinocytes by determining the release of the cytoplasm enzyme LDH (lactate dehydrogenase). This enzyme serves as a marker for cell damage.
# To carry out the tests, a defined medium containing fetal calf serum was inoculated with the keratinocytes and the plant extract (diluted with saline solution) was added 72 hours after the inoculation.
# The keratinocytes were then exposed to a dose of UV-B (50 mJ/cm^2-tubes: DUKE FL40E).
# After incubation for another day at 37° C./5% CO2, the LDH content in the supernatant was determined. The LDH (lactate dehydrogenase) content was determined by an enzyme reaction (kit used to determine LDH levels from Roche). The number of adhering keratinocytes was determined (after trypsin treatment) with a particle counter.
# Human plasmin = Human plasmin (Homo sapiens, UniProt P00747); assay: Plasmin inhibition after addition of the synthetic substrate; assay type: biochemical; conditions: 50 μg/ml
# Human plasmin, sequence (P00747 581-810 limits assumed): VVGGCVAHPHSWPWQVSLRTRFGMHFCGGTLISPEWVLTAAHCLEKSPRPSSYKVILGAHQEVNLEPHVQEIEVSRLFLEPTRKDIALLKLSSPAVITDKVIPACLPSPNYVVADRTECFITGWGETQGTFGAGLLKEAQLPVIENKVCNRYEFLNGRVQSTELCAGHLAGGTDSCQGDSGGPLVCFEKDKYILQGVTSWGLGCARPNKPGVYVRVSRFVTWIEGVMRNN
# Human plasmin, sequence (P00747 97-580 partner limits assumed): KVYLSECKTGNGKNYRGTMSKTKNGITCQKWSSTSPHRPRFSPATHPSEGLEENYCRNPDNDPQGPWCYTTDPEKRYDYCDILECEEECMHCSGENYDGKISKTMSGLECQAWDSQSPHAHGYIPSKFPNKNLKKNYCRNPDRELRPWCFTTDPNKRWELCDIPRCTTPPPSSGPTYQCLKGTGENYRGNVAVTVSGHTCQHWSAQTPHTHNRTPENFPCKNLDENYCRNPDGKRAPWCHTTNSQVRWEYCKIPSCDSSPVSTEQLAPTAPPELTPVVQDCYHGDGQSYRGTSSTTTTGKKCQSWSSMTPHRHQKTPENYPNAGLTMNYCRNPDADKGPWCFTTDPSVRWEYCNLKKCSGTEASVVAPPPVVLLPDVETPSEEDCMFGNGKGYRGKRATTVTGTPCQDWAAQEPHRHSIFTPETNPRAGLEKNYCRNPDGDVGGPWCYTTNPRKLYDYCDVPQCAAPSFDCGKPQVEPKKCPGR
# Procedure: Thereafter, either synthetic substrate, especially “Val-Leu-paranitroanilide”, a product of Chromogenix, or natural pro-MMP3 obtained from Merck-Eurolab was added to the mixture. In the case of the synthetic substrate, absorption at 405 nm was measured every 5 minutes over a period of 30 minutes and the release of paranitroanilines was thus determined.
# The inhibition of enzymatic activity was tested against a control with no substrate and against a reference substance, more particularly Aprotinine, a product of Sigma.
# human MMP-1 = target: T1, human MMP-1 (Homo sapiens, UniProt P03956); assay: Inhibition of collagenase activity (MMP-1); assay type: biochemical; conditions: concentration 50 nmol
# T1 sequence (P03956 100-469): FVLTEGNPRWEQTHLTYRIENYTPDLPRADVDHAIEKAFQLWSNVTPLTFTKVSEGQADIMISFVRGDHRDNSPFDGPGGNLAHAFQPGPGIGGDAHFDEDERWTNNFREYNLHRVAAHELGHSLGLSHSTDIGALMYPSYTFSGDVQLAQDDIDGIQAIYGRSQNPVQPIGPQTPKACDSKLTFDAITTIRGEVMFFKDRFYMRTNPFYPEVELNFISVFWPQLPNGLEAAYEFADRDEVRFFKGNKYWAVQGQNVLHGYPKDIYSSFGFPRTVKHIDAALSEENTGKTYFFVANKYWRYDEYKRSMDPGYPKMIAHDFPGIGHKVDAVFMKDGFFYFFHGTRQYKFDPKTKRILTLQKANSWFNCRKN
# Procedure: After exposure to the sun, dermal fibroblasts of elderly people pour out collagenases—also known as matrix metalloprotease (MMP). […] The incubation time was 60 mins. at room temperature. The hydrolysis of the substrate was determined by fluorescence spectrometry at λem=393 nm (λex=328 nm). The […] TIMP-1 (MMP inhibitor occurring naturally in tissue) was used as the comparison standard.
# human fibroblasts [6] = assay: Cell protecting effect against UV-A on human fibroblasts cultivated in vitro; assay type: cell-based; conditions: UV-A 20 J/cm^2; 0.0003% substance; level in % by comparison with the control
# Procedure: Method: To carry out these tests, a defined culture medium containing the fibroblasts is inoculated with foetal calf serum and added to the plant extract (in the defined medium containing 10% fetal calf serum) 72 hours after inoculation.
# After incubation for 48 hours at 37° C./5% CO2, the culture medium was replaced by saline solution (physiological NaCl solution) and the fibroblasts were exposed to a dose of UV-A (365 nm, 20 J/cm^2; tubes: MAZDA FLUOR TFWN40).
# After the exposure to UV-A, the MDA level (malonaldialdehyde level) in the supernatant sodium chloride solution was quantitatively determined by reaction with thiobarbituric acid.
# [7] = After exposure to UV-A (15 J/cm^2)
compound,measurement,setting,value
1′α1-Antitrypsin: natural elastase inhibitor used as positive standard,Elastase inhibition in %,elastase,68%
O=C1O[C@H]([C@@H](O)CO)C(O)=C1O [Ascorbic acid],"EC50 in %, DPPH Test",[1],0.0013%
same,"EC50 in %, Luminol + microperoxydase",[2],0.0058%
same,"EC50 in %, NBT",NBT (biochemical test),0.5909%
same,"EC50 in %, Luminol",xanthine oxidase,0.0006%
same,"EC50 in %, Fenton's reaction",[3],0.1%
same,"LD50 in % (w/v), ATP","human fibroblasts [4]; human fibroblasts, 3 days, intracellular ATP content",0.0056 % (w/v)
same,"LD50 in % (w/v), Proteins","human fibroblasts [4]; human fibroblasts, 3 days, protein content (Bradford)",0.0055 % (w/v)
C[C@@H]1C[C@H]2[C@@H]3CCC4=CC(=O)C=C[C@]4(C)[C@@]3(F)[C@@H](O)C[C@]2(C)[C@@]1(O)C(=O)CO [Dexamethasone],TIMP-1 poured out,TIMP-1; [7],19 ng/mL
same,TIMP-1 poured out,TIMP-1; Without exposure to UV-A,39 ng/mL
same,MMP-1 poured out,MMP-1; [7],7 ng/mL
same,MMP-1 poured out,MMP-1; Without exposure to UV-A,2 ng/mL
CN(C)c1ccc(O)c2c1C[C@H]1C[C@H]3[C@H](N(C)C)C(O)=C(C(N)=O)C(=O)[C@@]3(O)C(O)=C1C2=O [Minocycline],No. of intact cells,[5]; in % by comparison with the control,100%
same,ROS content (%/control),[5]; zymosan-induced respiratory burst,28 %/control
CC(=O)Oc1ccccc1C(=O)O [aspirin],LDH released,human keratinocytes,68%
same,No. of keratinocytes,human keratinocytes,33%
Aprotinine,% Inhibition compared with the control (plasmin),Human plasmin,100%
"TIMP-1: MMP inhibitor occurring naturally in tissue, used as the comparison standard",MMP-1 Inhibition in %,human MMP-1,93%
tocopherol,"EC50 in %, DPPH Test",[1],0.0067%
same,"EC50 in %, Luminol + microperoxydase",[2],No effect up
same,Cell proteins,human fibroblasts [6],97%
same,GSH/protein,human fibroblasts [6],78%
same,MDA released,human fibroblasts [6],11%
same,"EC50 in %, NBT",NBT (biochemical test),No effect up
same,"EC50 in %, Luminol",xanthine oxidase,No effect up
same,"LD50 in % (w/v), ATP",human fibroblasts [4],Nt toxic up
same,"LD50 in % (w/v), Proteins",human fibroblasts [4],Not toxic up
